From PubChem BioAssay (NCI)
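Abbreviation: GI50, concentration required for 50% inhibition of growth. The concentration for full growth arrest is given as TGI.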

Key:
Assay in all cases: DTP human tumour cell line panel, 384-well format
T-47D breast = test system: T-47D breast
LOX IMVI melanoma = test system: LOX IMVI melanoma
K-562 leukemia = test system: K-562 leukemia
SK-MEL-2 melanoma = test system: SK-MEL-2 melanoma
SNB-19 CNS = test system: SNB-19 CNS
HOP-92 NSCLC = test system: HOP-92 NSCLC
HCT-116 colon = test system: HCT-116 colon
ACHN renal = test system: ACHN renal
RPMI-8226 leukemia = test system: RPMI-8226 leukemia
SN12C renal = test system: SN12C renal
SF-539 CNS = test system: SF-539 CNS
NCI-H23 lung = test system: NCI-H23 lung
MDA-MB-468 breast = test system: MDA-MB-468 breast
A498 renal = test system: A498 renal
RXF 393 renal = test system: RXF 393 renal
NCI/ADR-RES ovarian = test system: NCI/ADR-RES ovarian
KM12 colon = test system: KM12 colon
786-0 renal = test system: 786-0 renal
OVCAR-8 ovarian = test system: OVCAR-8 ovarian
UACC-257 melanoma = test system: UACC-257 melanoma
NCI-H226 lung = test system: NCI-H226 lung
UACC-62 melanoma = test system: UACC-62 melanoma
MCF7 breast = test system: MCF7 breast
HOP-62 NSCLC = test system: HOP-62 NSCLC
SF-295 CNS = test system: SF-295 CNS
BT-549 breast = test system: BT-549 breast
CAKI-1 renal = test system: CAKI-1 renal
HCT-15 colon = test system: HCT-15 colon
SK-OV-3 ovarian = test system: SK-OV-3 ovarian
MDA-MB-231 breast = test system: MDA-MB-231 breast
EKVX NSCLC = test system: EKVX NSCLC
SF-268 CNS = test system: SF-268 CNS
IGROV1 ovarian = test system: IGROV1 ovarian
PC-3 prostate = test system: PC-3 prostate
OVCAR-4 ovarian = test system: OVCAR-4 ovarian
OVCAR-5 ovarian = test system: OVCAR-5 ovarian
SW-620 colon = test system: SW-620 colon
NCI-H322M lung = test system: NCI-H322M lung
NCI-H522 lung = test system: NCI-H522 lung
M14 melanoma = test system: M14 melanoma
SK-MEL-28 melanoma = test system: SK-MEL-28 melanoma
CCRF-CEM leukemia = test system: CCRF-CEM leukemia
SNB-75 CNS = test system: SNB-75 CNS
OVCAR-3 ovarian = test system: OVCAR-3 ovarian
HT29 colon = test system: HT29 colon
A549 NSCLC = test system: A549 NSCLC
MALME-3M melanoma = test system: MALME-3M melanoma
MDA-MB-435 melanoma = test system: MDA-MB-435 melanoma
UO-31 renal = test system: UO-31 renal
U251 glioblastoma = test system: U251 glioblastoma
HS 578T breast = test system: HS 578T breast

## COc1cccc2c1C(=O)c1c(O)c3c(c(O)c1C2=O)C[C@@](O)(C(C)=O)C[C@@H]3OC1CC(N)C(O)C(C)O1 (stereo partly drawn)
T-47D breast
  GI50: 36.8 nM
  TGI: 2140 nM
LOX IMVI melanoma
  GI50: 19.3 nM
  TGI: 135 nM
K-562 leukemia
  GI50: 14.6 nM
  TGI: 138 nM
SK-MEL-2 melanoma
  GI50: 71 nM
  TGI: 142 nM
SNB-19 CNS
  GI50: 31.8 nM
  TGI: 13.1 µM
HOP-92 NSCLC
  GI50: 60 nM
  TGI: 3.14 µM
HCT-116 colon
  GI50: 14.6 nM
  TGI: 1970 nM
ACHN renal
  GI50: 69.5 nM
  TGI: 265 nM
RPMI-8226 leukemia
  TGI: 20.9 nM
SN12C renal
  GI50: 24.2 nM
  TGI: 160 nM
SF-539 CNS
  GI50: 13.5 nM
  TGI: 115 nM
NCI-H23 lung
  GI50: 21.9 nM
  TGI: 69.3 nM
MDA-MB-468 breast
  GI50: 10.7 nM
  TGI: 24 nM
A498 renal
  GI50: 28.2 nM
  TGI: 199 nM
RXF 393 renal
  GI50: 102 nM
  TGI: 237 nM
NCI/ADR-RES ovarian
  GI50: 1520 nM
  TGI: 3.39 µM
KM12 colon
  GI50: 15.9 nM
  TGI: 908 nM
786-0 renal
  GI50: 31 nM
  TGI: 1200 nM
OVCAR-8 ovarian
  GI50: 37 nM
  TGI: 197 nM
UACC-257 melanoma
  GI50: 90.2 nM
  TGI: 216 nM
NCI-H226 lung
  GI50: 33.5 nM
  TGI: 282 nM
UACC-62 melanoma
  GI50: 11.5 nM
  TGI: 115 nM
MCF7 breast
  GI50: 21.5 nM
  TGI: 10.5 µM
HOP-62 NSCLC
  GI50: 19.4 nM
  TGI: 73.8 nM
SF-295 CNS
  GI50: 32.1 nM
  TGI: 114 nM
BT-549 breast
  GI50: 17.9 nM
  TGI: 94.7 nM
CAKI-1 renal
  GI50: 48.6 nM
  TGI: 440 nM
HCT-15 colon
  GI50: 51.7 nM
  TGI: 1010 nM
SK-OV-3 ovarian
  GI50: 36.7 nM
  TGI: 181 nM
MDA-MB-231 breast
  GI50: 24.3 nM
  TGI: 133 nM
EKVX NSCLC
  GI50: 283 nM
  TGI: 1650 nM
SF-268 CNS
  GI50: 25.4 nM
  TGI: 181 nM
IGROV1 ovarian
  GI50: 118 nM
  TGI: 281 nM
PC-3 prostate
  GI50: 85.9 nM
  TGI: 282 nM
OVCAR-4 ovarian
  GI50: 165 nM
  TGI: 701 nM
OVCAR-5 ovarian
  GI50: 105 nM
  TGI: 325 nM
SW-620 colon
  TGI: 201 nM
NCI-H322M lung
  GI50: 152 nM
  TGI: 433 nM
NCI-H522 lung
  TGI: 90.9 nM
M14 melanoma
  GI50: 21.8 nM
  TGI: 135 nM
SK-MEL-28 melanoma
  GI50: 103 nM
  TGI: 229 nM
CCRF-CEM leukemia
  TGI: 16.9 nM
SNB-75 CNS
  GI50: 108 nM
  TGI: 269 nM
OVCAR-3 ovarian
  GI50: 78.1 nM
  TGI: 566 nM
HT29 colon
  GI50: 29.2 nM
  TGI: 148 nM
A549 NSCLC
  GI50: 36.9 nM
  TGI: 170 nM
MALME-3M melanoma
  GI50: 44.5 nM
  TGI: 176 nM
MDA-MB-435 melanoma
  GI50: 103 nM
  TGI: 260 nM
UO-31 renal
  GI50: 303 nM
  TGI: 1470 nM
U251 glioblastoma
  GI50: 10 nM
  TGI: 1080 nM
HS 578T breast
  GI50: 45.4 nM
  TGI: 234 nM
